According to patent US10308667B2, “Oxadiazolopyridine derivatives for use as ghrelin O-acyl transferase (GOAT) inhibitors” (Boehringer Ingelheim International GmbH, priority 2016, dated 2019):
pIC50: −log10 of the molar value.

Each molecule was assayed against human GOAT (Homo sapiens (Human), UniProt Q96T53) (assay: Determination of hGOAT Activity in HEK293 Cells after Incubation with Test Compound). Conditions: HEK293 cells stably transfected with preproghrelin and human GOAT; octanoate-BSA 100 μM; acyl-ghrelin in medium by ELISA after 5 hours.
Type: cell-based
Method in brief: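 HEK293 cells stably expressing preproghrelin and human GOAT were given serum-free medium with 100 μM octanoate-BSA plus compound (0.3% DMSO) for 5 h. Acyl-ghrelin in the medium was quantified by ELISA (A405, standard curve) as % of vehicle. IC50 was fitted from 8 concentrations.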

Chain of human GOAT (Q96T53 whole entry): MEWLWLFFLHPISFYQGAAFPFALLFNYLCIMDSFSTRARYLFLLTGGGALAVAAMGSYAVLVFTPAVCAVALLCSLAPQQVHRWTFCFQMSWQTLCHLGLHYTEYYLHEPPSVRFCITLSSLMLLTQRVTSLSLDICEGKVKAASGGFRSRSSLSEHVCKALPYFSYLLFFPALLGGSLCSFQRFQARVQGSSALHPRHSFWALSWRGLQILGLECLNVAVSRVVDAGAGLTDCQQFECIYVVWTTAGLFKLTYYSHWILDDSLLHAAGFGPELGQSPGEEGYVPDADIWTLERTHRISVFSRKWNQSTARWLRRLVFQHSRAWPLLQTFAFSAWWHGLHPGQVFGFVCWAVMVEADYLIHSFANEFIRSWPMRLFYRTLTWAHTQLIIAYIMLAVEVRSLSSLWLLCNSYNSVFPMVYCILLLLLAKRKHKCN

| SMILES | pIC50 |
| --- | --- |
| Cc1nc2nonc2c(N)c1Cc1ncc(C#N)c(C(F)F)n1 [Example 79, 2-(7-amino-5-methyl-[1,2,5]oxadiazolo[3,4-b]pyridin-6-ylmethyl)-4-(difluoromethyl)pyrimidine-5-carbonitrile] | 9.23 |
| Cc1nc2nonc2c(N)c1Cc1ccc(N2CCOCC2)c(C#N)n1 [Example 152, 6-(7-Amino-5-methyl-[1,2,5]oxadiazolo[3,4-b]pyridin-6-ylmethyl)-3-morpholin-4-yl-pyridine-2-carbonitrile] | 9.22 |
| Cc1nc2nonc2c(N)c1Cc1ccc(Br)c(OCCF)n1 [Example 100, 6-[5-Bromo-6-(2-fluoro-ethoxy)-pyridin-2-ylmethyl]-5-methyl-[1,2,5]oxadiazolo[3,4-b]pyridin-7-ylamine] | 10.47 |
| Cc1nc2nonc2c(N)c1Cc1ccc(S(C)(=O)=O)cn1 [Example 88, 6-(5-Methanesulfonyl-pyridin-2-ylmethyl)-5-methyl-[1,2,5]oxadiazolo[3,4-b]pyridin-7-ylamine] | 8.48 |
| Cc1nc2nonc2c(N)c1Cc1ccc(OC(F)F)cn1 [Example 14, 6-(5-Difluoromethoxy-pyridin-2-ylmethyl)-5-methyl-[1,2,5]oxadiazolo[3,4-b]pyridin-7-ylamine] | 9.17 |
| Cc1nc2nonc2c(N)c1Cc1ccc(C#N)c(Cl)n1 [Example 24, 6-(7-Amino-5-methyl-[1,2,5]oxadiazolo[3,4-b]pyridin-6-ylmethyl)-2-chloro-nicotinonitrile] | 9.92 |
| Cc1nc2nonc2c(N)c1Cc1ccc(OC(F)F)c(C(N)=O)n1 [Example 90, 6-(7-Amino-5-methyl-[1,2,5]oxadiazolo[3,4-b]pyridin-6-ylmethyl)-3-difluoromethoxy-pyridine-2-carboxylic Acid Amide] | 9.27 |
| Cc1nc2nonc2c(N)c1Cc1ccc(C#N)c(NC2CC(F)(F)C2)n1 [Example 140, 6-(7-Amino-5-methyl-[1,2,5]oxadiazolo[3,4-b]pyridin-6-ylmethyl)-2-(3,3-difluoro-cyclobutylamino)-nicotinonitrile] | 9.82 |
| Cc1nc2nonc2c(N)c1Cc1ccc(N2CCC(F)(F)C2)c(C#N)n1 [Example 150, 6-(7-Amino-5-methyl-[1,2,5]oxadiazolo[3,4-b]pyridin-6-ylmethyl)-3-(3,3-difluoro-pyrrolidin-1-yl)-pyridine-2-carbonitrile] | 8.64 |
| Cc1nc2nonc2c(N)c1Cc1ccc(C#N)c(OC2COC2)n1 [Example 104, 6-(7-Amino-5-methyl-[1,2,5]oxadiazolo[3,4-b]pyridin-6-ylmethyl)-2-(oxetan-3-yloxy)-nicotinonitrile] | 9.01 |
| Cc1nc2nonc2c(N)c1Cc1cccc(C(C)(C)C#N)n1 [Example 63, 2-[6-(7-Amino-5-methyl-[1,2,5]oxadiazolo[3,4-b]pyridin-6-ylmethyl)-pyridin-2-yl]-2-methyl-propionitrile] | 9.32 |
| Cc1nc2nonc2c(N)c1Cc1ncc(Br)c(C(F)(F)F)n1 [Example 83, 6-[5-bromo-4-(trifluoromethyl)pyrimidin-2-yl]methyl-5-methyl-[1,2,5]oxadiazolo[3,4-b]pyridin-7-amine] | 10.11 |
| Cc1nc2nonc2c(N)c1Cc1ccc(Br)c(=O)[nH]1 [Example 163, 6-(7-Amino-5-methyl-[1,2,5]oxadiazolo[3,4-b]pyridin-6-ylmethyl)-3-bromo-1H-pyridin-2-one] | 8.60 |
| Cc1nc2nonc2c(N)c1Cc1ccc(OC(F)(F)F)cn1 [Example 17, 5-Methyl-6-(5-trifluoromethoxy-pyridin-2-ylmethyl)-[1,2,5]oxadiazolo[3,4-b]pyridin-7-ylamine] | 9.66 |
| Cc1nc2nonc2c(N)c1Cc1ccc(C#N)c(C#N)n1 [Example 158, 6-(7-Amino-5-methyl-[1,2,5]oxadiazolo[3,4-b]pyridin-6-ylmethyl)-pyridine-2,3-dicarbonitrile] | 8.77 |
| Cc1nc2nonc2c(N)c1Cc1ncc(C(F)(F)F)c(N)n1 [Example 46, 2-(7-amino-5-methyl-[1,2,5]oxadiazolo[3,4-b]pyridin-6-ylmethyl)-5-(trifluoromethyl)pyrimidin-4-amine] | 9.66 |
| Cc1nc2nonc2c(N)c1Cc1ccc(Br)c(NC2CC2)n1 [Example 125, 6-(5-Bromo-6-cyclopropylamino-pyridin-2-ylmethyl)-5-methyl-[1,2,5]oxadiazolo[3,4-b]pyridin-7-ylamine] | 10.42 |
| Cc1nc2nonc2c(N)c1Cc1ccc(Br)c(C#N)n1 [Example 71, 6-(7-Amino-5-methyl-[1,2,5]oxadiazolo[3,4-b]pyridin-6-ylmethyl)-3-bromopyridine-2-carbonitrile] | 9.66 |
| Cc1nc2nonc2c(N)c1Cc1ccc(Br)c(NCC(C)(C)C(N)=O)n1 [Example 124, 3-[6-(7-Amino-5-methyl-[1,2,5]oxadiazolo[3,4-b]pyridin-6-ylmethyl)-3-bromo-pyridin-2-ylamino]-2,2-di methyl-propionamide] | 10.25 |
| Cc1nc2nonc2c(N)c1Cc1cccc(C(N)=O)n1 [Example 56, 6-(7-Amino-5-methyl-[1,2,5]oxadiazolo[3,4-b]pyridin-6-ylmethyl)-pyridine-2-carboxylic Acid Amide] | 9.14 |
| Cc1nc2nonc2c(N)c1Cc1ncc(C#N)c(C(F)(F)F)n1 [Example 78, 2-(7-amino-5-methyl-[1,2,5]oxadiazolo[3,4-b]pyridin-6-ylmethyl)-4-(trifluoromethyl)pyrimidine-5-carbonitril] | 9.44 |
| Cc1nc2nonc2c(N)c1Cc1ccc(OC(F)F)c(C#N)n1 [Example 70, 6-(7-Amino-5-methyl-[1,2,5]oxadiazolo[3,4-b]pyridin-6-ylmethyl)-3-difluoromethoxy-pyridine-2-carbonitrile] | 10.09 |
| Cc1nc2nonc2c(N)c1Cc1cc(Cl)c(C(F)(F)F)cn1 [Example 20, 6-(4-Chloro-5-trifluoromethyl-pyridin-2-ylmethyl)-5-methyl-[1,2,5]oxadiazolo[3,4-b]pyridin-7-ylamine] | 9.77 |
| Cc1nc2nonc2c(N)c1Cc1ccc(NCCF)c(C#N)n1 [Example 153, 6-(7-Amino-5-methyl-[1,2,5]oxadiazolo[3,4-b]pyridin-6-ylmethyl)-3-(2-fluoro-ethylamino)-pyridine-2-carbonitrile] | 9.25 |
| Cc1nc2nonc2c(N)c1Cc1cc(C(F)(F)F)c(C#N)cn1 [Example 74, 6-(7-Amino-5-methyl-[1,2,5]oxadiazolo[3,4-b]pyridin-6-ylmethyl)-4-trifluoromethyl-nicotinonitrile] | 8.70 |
| Cc1nc2nonc2c(N)c1Cc1ccc(C#N)c(OCC(C)(C)O)n1 [Example 105, 6-(7-Amino-5-methyl-[1,2,5]oxadiazolo[3,4-b]pyridin-6-ylmethyl)-2-(2-hydroxy-2-methyl-propoxy)-nicotinonitrile] | 9.92 |
| Cc1nc2nonc2c(N)c1Cc1ccc(C#N)cn1 [Example 4, 6-(7-Amino-5-methyl-[1,2,5]oxadiazolo[3,4-b]pyridin-6-ylmethyl)-nicotinonitrile] | 8.77 |
| Cc1nc2nonc2c(N)c1Cc1ncc(C(F)(F)F)c(Cl)n1 [Example 50, 6-[4-chloro-5-(trifluoromethyl)pyrimidin-2-yl]methyl-5-methyl-[1,2,5]oxadiazolo[3,4-b]pyridin-7-amine] | 8.60 |
